Laboratory results: PubChem BioAssay (NCI)
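Values below derive from 48-hour exposures of cells grown in 96-well plates, with endpoints linearly interpolated between the two concentrations bracketing the appropriate inhibition level. TGI marks complete inhibition of growth.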

Test system: 786-0 renal
Test: NCI-60 cell line screen, 48 h

`C[n+]1cn(C2=C([O-])c3ccccc3C(=O)/C2=N\S(=O)(=O)c2ccccc2)c2ccccc21` and `Cc1nn(C(=O)c2ccccc2O)c2c1C(c1ccccc1O)SC(N)=N2` (stereo not given) cannot be ordered by TGI: over 100 µM for the first, over 10 µM for the second.

`O=C1NN=C2C=C(c3ccc(Cl)cc3)CC(c3cccc(Br)c3)C12` (stereo not given) and `COC(=O)C1(NC(=O)C(CC(=O)OCc2ccccc2)NC(=O)OCc2ccccc2)CCCCCCC1` (stereo not given) cannot be ordered by TGI: over 100 µM for the first, over 100 µM for the second.

With `C=CCSc1nc2c(N)ncnc2n1C1OC(CO)C(O)C1O` (stereo not given) the TGI was over 100 µM.

Test system: A498 renal
Test: NCI-60 cell line screen, 48 h

Compared with `COC(=O)C1(NC(=O)C(CC(=O)OCc2ccccc2)NC(=O)OCc2ccccc2)CCCCCCC1` (stereo not given), `C=CCSc1nc2c(N)ncnc2n1C1OC(CO)C(O)C1O` (stereo not given) is higher in TGI: 67.7 µM for the first, over 100 µM for the second.

Test system: A549 NSCLC
Test: NCI-60 cell line screen, 48 h

`C[n+]1cn(C2=C([O-])c3ccccc3C(=O)/C2=N\S(=O)(=O)c2ccccc2)c2ccccc21` and `Cc1nn(C(=O)c2ccccc2O)c2c1C(c1ccccc1O)SC(N)=N2` (stereo not given) cannot be ordered by TGI: over 100 µM for the first, over 10 µM for the second.

`O=C1NN=C2C=C(c3ccc(Cl)cc3)CC(c3cccc(Br)c3)C12` (stereo not given) and `COC(=O)C1(NC(=O)C(CC(=O)OCc2ccccc2)NC(=O)OCc2ccccc2)CCCCCCC1` (stereo not given) cannot be ordered by TGI: over 100 µM for the first, over 100 µM for the second.

`C=CCSc1nc2c(N)ncnc2n1C1OC(CO)C(O)C1O` (stereo not given) was tested, and the TGI was over 100 µM.

Test system: ACHN renal
Test: NCI-60 cell line screen, 48 h

`C[n+]1cn(C2=C([O-])c3ccccc3C(=O)/C2=N\S(=O)(=O)c2ccccc2)c2ccccc21` and `Cc1nn(C(=O)c2ccccc2O)c2c1C(c1ccccc1O)SC(N)=N2` (stereo not given) cannot be ordered by TGI: over 100 µM for the first, over 10 µM for the second.

`O=C1NN=C2C=C(c3ccc(Cl)cc3)CC(c3cccc(Br)c3)C12` (stereo not given) and `COC(=O)C1(NC(=O)C(CC(=O)OCc2ccccc2)NC(=O)OCc2ccccc2)CCCCCCC1` (stereo not given) cannot be ordered by TGI: over 100 µM for the first, over 100 µM for the second.

`C=CCSc1nc2c(N)ncnc2n1C1OC(CO)C(O)C1O` (stereo not given) gave a TGI of over 100 µM.

Test system: BT-549 breast
Test: NCI-60 cell line screen, 48 h

`C[n+]1cn(C2=C([O-])c3ccccc3C(=O)/C2=N\S(=O)(=O)c2ccccc2)c2ccccc21` and `Cc1nn(C(=O)c2ccccc2O)c2c1C(c1ccccc1O)SC(N)=N2` (stereo not given) cannot be ordered by TGI: 86.1 µM for the first, over 10 µM for the second.

`O=C1NN=C2C=C(c3ccc(Cl)cc3)CC(c3cccc(Br)c3)C12` (stereo not given) and `COC(=O)C1(NC(=O)C(CC(=O)OCc2ccccc2)NC(=O)OCc2ccccc2)CCCCCCC1` (stereo not given) cannot be ordered by TGI: over 100 µM for the first, over 100 µM for the second.

`C=CCSc1nc2c(N)ncnc2n1C1OC(CO)C(O)C1O` (stereo not given) gave a TGI of over 100 µM.

Test system: CAKI-1 renal
Test: NCI-60 cell line screen, 48 h

`C[n+]1cn(C2=C([O-])c3ccccc3C(=O)/C2=N\S(=O)(=O)c2ccccc2)c2ccccc21` and `Cc1nn(C(=O)c2ccccc2O)c2c1C(c1ccccc1O)SC(N)=N2` (stereo not given) cannot be ordered by TGI: over 100 µM for the first, over 10 µM for the second.

`O=C1NN=C2C=C(c3ccc(Cl)cc3)CC(c3cccc(Br)c3)C12` (stereo not given) and `COC(=O)C1(NC(=O)C(CC(=O)OCc2ccccc2)NC(=O)OCc2ccccc2)CCCCCCC1` (stereo not given) cannot be ordered by TGI: over 100 µM for the first, over 100 µM for the second.

`C=CCSc1nc2c(N)ncnc2n1C1OC(CO)C(O)C1O` (stereo not given) gave a TGI of over 100 µM.

Test system: CCRF-CEM leukemia
Test: NCI-60 cell line screen, 48 h

First: C[n+]1cn(C2=C([O-])c3ccccc3C(=O)/C2=N\S(=O)(=O)c2ccccc2)c2ccccc21
Second: Cc1nn(C(=O)c2ccccc2O)c2c1C(c1ccccc1O)SC(N)=N2 (stereo not given)
The TGI of the first is higher: over 100 µM for the first, 9.01 µM for the second.

For `O=C1NN=C2C=C(c3ccc(Cl)cc3)CC(c3cccc(Br)c3)C12` (stereo not given), the TGI was 56.5 µM.

Test system: COLO 205 colon
Test: NCI-60 cell line screen, 48 h

`C[n+]1cn(C2=C([O-])c3ccccc3C(=O)/C2=N\S(=O)(=O)c2ccccc2)c2ccccc21` and `Cc1nn(C(=O)c2ccccc2O)c2c1C(c1ccccc1O)SC(N)=N2` (stereo not given) cannot be ordered by TGI: 26.1 µM for the first, over 10 µM for the second.

Going from `O=C1NN=C2C=C(c3ccc(Cl)cc3)CC(c3cccc(Br)c3)C12` (stereo not given) to `COC(=O)C1(NC(=O)C(CC(=O)OCc2ccccc2)NC(=O)OCc2ccccc2)CCCCCCC1` (stereo not given), the TGI falls from over 100 µM to 82.7 µM.

`C=CCSc1nc2c(N)ncnc2n1C1OC(CO)C(O)C1O` (stereo not given) showed a TGI of over 100 µM.

Test system: DU-145 prostate
Test: NCI-60 cell line screen, 48 h

`C[n+]1cn(C2=C([O-])c3ccccc3C(=O)/C2=N\S(=O)(=O)c2ccccc2)c2ccccc21` and `Cc1nn(C(=O)c2ccccc2O)c2c1C(c1ccccc1O)SC(N)=N2` (stereo not given) cannot be ordered by TGI: over 100 µM for the first, over 10 µM for the second.

`O=C1NN=C2C=C(c3ccc(Cl)cc3)CC(c3cccc(Br)c3)C12` (stereo not given) and `COC(=O)C1(NC(=O)C(CC(=O)OCc2ccccc2)NC(=O)OCc2ccccc2)CCCCCCC1` (stereo not given) cannot be ordered by TGI: over 100 µM for the first, over 100 µM for the second.

`C=CCSc1nc2c(N)ncnc2n1C1OC(CO)C(O)C1O` (stereo not given) gave a TGI of over 100 µM.

Test system: EKVX NSCLC
Test: NCI-60 cell line screen, 48 h

`C[n+]1cn(C2=C([O-])c3ccccc3C(=O)/C2=N\S(=O)(=O)c2ccccc2)c2ccccc21` and `Cc1nn(C(=O)c2ccccc2O)c2c1C(c1ccccc1O)SC(N)=N2` (stereo not given) cannot be ordered by TGI: over 100 µM for the first, over 10 µM for the second.

`O=C1NN=C2C=C(c3ccc(Cl)cc3)CC(c3cccc(Br)c3)C12` (stereo not given) and `COC(=O)C1(NC(=O)C(CC(=O)OCc2ccccc2)NC(=O)OCc2ccccc2)CCCCCCC1` (stereo not given) cannot be ordered by TGI: over 100 µM for the first, over 100 µM for the second.

In the case of `C=CCSc1nc2c(N)ncnc2n1C1OC(CO)C(O)C1O` (stereo not given), the TGI is reported as over 100 µM.

Test system: HCC-2998 colon
Test: NCI-60 cell line screen, 48 h

`C[n+]1cn(C2=C([O-])c3ccccc3C(=O)/C2=N\S(=O)(=O)c2ccccc2)c2ccccc21` and `Cc1nn(C(=O)c2ccccc2O)c2c1C(c1ccccc1O)SC(N)=N2` (stereo not given) cannot be ordered by TGI: 46.7 µM for the first, over 10 µM for the second.

`O=C1NN=C2C=C(c3ccc(Cl)cc3)CC(c3cccc(Br)c3)C12` (stereo not given) gave a TGI of over 100 µM.

Test system: HCT-116 colon
Test: NCI-60 cell line screen, 48 h

`C[n+]1cn(C2=C([O-])c3ccccc3C(=O)/C2=N\S(=O)(=O)c2ccccc2)c2ccccc21` and `Cc1nn(C(=O)c2ccccc2O)c2c1C(c1ccccc1O)SC(N)=N2` (stereo not given) cannot be ordered by TGI: over 100 µM for the first, over 10 µM for the second.

`O=C1NN=C2C=C(c3ccc(Cl)cc3)CC(c3cccc(Br)c3)C12` (stereo not given) and `COC(=O)C1(NC(=O)C(CC(=O)OCc2ccccc2)NC(=O)OCc2ccccc2)CCCCCCC1` (stereo not given) cannot be ordered by TGI: over 100 µM for the first, over 100 µM for the second.

Compound `C=CCSc1nc2c(N)ncnc2n1C1OC(CO)C(O)C1O` (stereo not given) has a TGI of over 100 µM.

Test system: HCT-15 colon
Test: NCI-60 cell line screen, 48 h

`C[n+]1cn(C2=C([O-])c3ccccc3C(=O)/C2=N\S(=O)(=O)c2ccccc2)c2ccccc21` and `Cc1nn(C(=O)c2ccccc2O)c2c1C(c1ccccc1O)SC(N)=N2` (stereo not given) cannot be ordered by TGI: over 100 µM for the first, over 10 µM for the second.

Going from `O=C1NN=C2C=C(c3ccc(Cl)cc3)CC(c3cccc(Br)c3)C12` (stereo not given) to `COC(=O)C1(NC(=O)C(CC(=O)OCc2ccccc2)NC(=O)OCc2ccccc2)CCCCCCC1` (stereo not given), the TGI rises from 61.7 µM to over 100 µM.

In the case of `C=CCSc1nc2c(N)ncnc2n1C1OC(CO)C(O)C1O` (stereo not given), the TGI is reported as over 100 µM.

Test system: HL-60(TB) leukemia
Test: NCI-60 cell line screen, 48 h

Going from `C[n+]1cn(C2=C([O-])c3ccccc3C(=O)/C2=N\S(=O)(=O)c2ccccc2)c2ccccc21` to `Cc1nn(C(=O)c2ccccc2O)c2c1C(c1ccccc1O)SC(N)=N2` (stereo not given), the TGI falls from 86.1 µM to 5.02 µM (17-fold).

First: O=C1NN=C2C=C(c3ccc(Cl)cc3)CC(c3cccc(Br)c3)C12 (stereo not given)
Second: COC(=O)C1(NC(=O)C(CC(=O)OCc2ccccc2)NC(=O)OCc2ccccc2)CCCCCCC1 (stereo not given)
The TGI of the first is higher: over 100 µM for the first, 51.9 µM for the second.

`C=CCSc1nc2c(N)ncnc2n1C1OC(CO)C(O)C1O` (stereo not given) was tested, and the TGI was over 100 µM.

Test system: HOP-62 NSCLC
Test: NCI-60 cell line screen, 48 h

`C[n+]1cn(C2=C([O-])c3ccccc3C(=O)/C2=N\S(=O)(=O)c2ccccc2)c2ccccc21` and `Cc1nn(C(=O)c2ccccc2O)c2c1C(c1ccccc1O)SC(N)=N2` (stereo not given) cannot be ordered by TGI: over 100 µM for the first, over 10 µM for the second.

`O=C1NN=C2C=C(c3ccc(Cl)cc3)CC(c3cccc(Br)c3)C12` (stereo not given) and `COC(=O)C1(NC(=O)C(CC(=O)OCc2ccccc2)NC(=O)OCc2ccccc2)CCCCCCC1` (stereo not given) cannot be ordered by TGI: over 100 µM for the first, over 100 µM for the second.

For `C=CCSc1nc2c(N)ncnc2n1C1OC(CO)C(O)C1O` (stereo not given), the TGI was over 100 µM.

Test system: HOP-92 NSCLC
Test: NCI-60 cell line screen, 48 h

`C[n+]1cn(C2=C([O-])c3ccccc3C(=O)/C2=N\S(=O)(=O)c2ccccc2)c2ccccc21` and `Cc1nn(C(=O)c2ccccc2O)c2c1C(c1ccccc1O)SC(N)=N2` (stereo not given) cannot be ordered by TGI: over 100 µM for the first, over 10 µM for the second.
